Assay results: patent US8921385B2, “5-substituted quinazolinone derivatives and compositions comprising and methods of using the same” (Celgene Corporation, priority 2006, dated 2014)
Structures can show the parent of a compound that is named as a salt.

SMILES | melting point
Cc1nc2cccc(CNC(=O)OC(C)(C)C)c2c(=O)n1C1CCC(=O)NC1=O (stereo not drawn) [Example 6.28, [3-(2,6-Dioxo-Piperidin-3-yl)-2-Methyl-4-Oxo-3,4-Dihydro-Quinazolin-5-ylmethyl]-Carbamic Acid Tert-Butyl Ester] | 206 to 208 °C
Cc1cccc2ncn(C3CCC(=O)NC3=O)c(=O)c12 (stereo not drawn) [Example 6.1, 3-(5-Methyl-4-Oxo-4H-Quinazolin-3-yl)-Piperidine-2,6-Dione] | 262 to 264 °C
Cc1nc2cccc(NC(=O)CN(C)C)c2c(=O)n1C1CCC(=O)NC1=O (stereo not drawn) (as salt: chloride) [Example 6.25, 2-Dimethylamino-N-[3-(2,6-Dioxo-Piperidin-3-yl)-2-Methyl-4-Oxo-3,4-Dihydro-Quinazolin-5-yl]-Acetamide Hydrogen Chloride] | 256 to 258 °C
Cc1cccc2nc(C)n(C3CCC(=O)NC3=O)c(=O)c12 (stereo not drawn) [Example 6.2, 3-(2,5-Dimethyl-4-Oxo-4H-Quinazolin-3-yl)-Piperidine-2,6-Dione] | 292 to 294 °C
Cc1nc2cccc(CNC(=O)c3ccc(C(F)(F)F)cc3)c2c(=O)n1C1CCC(=O)NC1=O (stereo not drawn) [Example 6.53, N-[3-(2,6-Dioxo-Piperidin-3-yl)-2-Methyl-4-Oxo-3,4-Dihydro-Quinazolin-5-ylmethyl]-4-Trifluoromethyl-Benzamide] | 253 to 255 °C
Cc1nc2cccc(NC(=O)CCl)c2c(=O)n1C1CCC(=O)NC1=O (stereo not drawn) [Example 6.26, 2-Chloro-N-[3-(2,6-Dioxo-Piperidin-3-yl)-2-Methyl-4-Oxo-3,4-Dihydro-Quinazolin-5-yl]-Acetamide] | 275 to 277 °C
CC(=O)Nc1cccc2nc(C)n(C3CCC(=O)NC3=O)c(=O)c12 (stereo not drawn) [Example 6.21, N-[3-(2,6-Dioxo-Piperidin-3-yl)-2-Methyl-4-Oxo-3,4-Dihydro-Quinazolin-5-yl]-Acetamide] | 320 to 322 °C
O=C1CCC(n2cnc3cccc(Cl)c3c2=O)C(=O)N1 (stereo not drawn) [Example 6.12, 3-(5-Chloro-4-Oxo-4H-Quinazolin-3-yl)-Piperidine-2,6-Dione] | 308 to 310 °C
Cc1ccc(NC(=O)NCc2cccc3nc(C)n(C4CCC(=O)NC4=O)c(=O)c23)cc1Cl (stereo not drawn) [Example 6.47, 1-(3-Chloro-4-Methyl-Phenyl)-3-[3-(2,6-Dioxo-Piperidin-3-yl)-2-Methyl-4-Oxo-3,4-Dihydro-Quinazolin-5-ylmethyl]-Urea] | 250 to 252 °C
COCC(=O)Nc1cccc2nc(C)n(C3CCC(=O)NC3=O)c(=O)c12 (stereo not drawn) [Example 6.20, N-[3-(2,6-Dioxo-Piperidin-3-yl)-2-Methyl-4-Oxo-3,4-Dihydro-Quinazolin-5-yl]-2-Methoxy-Acetamide] | 282 to 284 °C
Cc1ccc(NC(=O)NCc2cccc3nc(C)n(C4CCC(=O)NC4=O)c(=O)c23)cc1C (stereo not drawn) [Example 6.48, 1-(3,4-Dimethyl-Phenyl)-3-[3-(2,6-Dioxo-Piperidin-3-yl)-2-Methyl-4-Oxo-3,4-Dihydro-Quinazolin-5-ylmethyl]-Urea] | 241 to 243 °C
CCc1nc2cccc(C)c2c(=O)n1C1CCC(=O)NC1=O (stereo not drawn) [Example 6.13, 3-(2-Ethyl-5-Methyl-4-Oxo-4H-Quinazolin-3-yl)-Piperidine-2,6-Dione] | 228 to 230 °C
Cc1nc2cccc(N)c2c(=O)n1[C@]1(C)CCC(=O)NC1=O [Example 6.19, (R)-3-(5-Amino-2-Methyl-4-Oxoquinazolin-3(4H)-yl)-3-Methylpiperidine-2,6-Dione] | 295 to 297 °C
CCOCC(=O)Nc1cccc2nc(C)n(C3CCC(=O)NC3=O)c(=O)c12 (stereo not drawn) [Example 6.24, N-[3-(2,6-Dioxo-Piperidin-3-yl)-2-Methyl-4-Oxo-3,4-Dihydro-Quinazolin-5-yl]-2-Ethoxy-Acetamide] | 291 to 293 °C
Cc1nc2cccc(CNC(=O)CC(C)(C)C)c2c(=O)n1C1CCC(=O)NC1=O (stereo not drawn) [Example 6.33, N-[3-(2,6-Dioxo-Piperidin-3-yl)-2-Methyl-4-Oxo-3,4-Dihydro-Quinazolin-5-ylmethyl]-3,3-Dimethyl-Butyramide] | 212 to 214 °C
Cc1nc2cccc(CNC(=O)c3cccc(C(F)(F)F)c3)c2c(=O)n1C1CCC(=O)NC1=O (stereo not drawn) [Example 6.57, N-[3-(2,6-Dioxo-Piperidin-3-yl)-2-Methyl-4-Oxo-3,4-Dihydro-Quinazolin-5-ylmethyl]-3-Trifluoromethyl-Benzamide] | 233 to 235 °C
Cc1nc2cccc(CNC(=O)CN(C)C)c2c(=O)n1C1CCC(=O)NC1=O (stereo not drawn) [Example 6.35, 2-Dimethylamino-N-[3-(2,6-Dioxo-Piperidin-3-yl)-2-Methyl-4-Oxo-3,4-Dihydro-Quinazolin-5-ylmethyl]-Acetamide] | 275 °C (dec.)
Cc1cccc2nc(O)n(C3CCC(=O)NC3=O)c(=O)c12 (stereo not drawn) [Example 6.5, 3-(2-Hydroxy-5-Methyl-4-Oxo-4H-Quinazolin-3-yl)-Piperidine-2,6-Dione] | 373 to 375 °C
